# In ChEMBL document CHEMBL5614409, “Discovery of potent HIV-1 NNRTIs by CuAAC click-chemistry-based miniaturized synthesis, rapid screening and structure optimization” (Eur J Med Chem, 2024):
# Target: Human immunodeficiency virus type 1 reverse transcriptase (Human immunodeficiency virus 1, UniProt Q72547)
# Assay: Inhibition of HIV-1 reverse transcriptase assessed as reduction in biotin-dUTP incorporation incubated for 2 hrs in presence of template and viral nucleotides by ELISA
# Conditions: not given
row,IC50,SMILES
1,54 nM,CCOC(=O)Cn1cc(CN2CCC(Nc3nccc(Oc4c(C)cc(/C=C/C#N)cc4C)n3)CC2)nn1
2,56 nM,COC(=O)CCCn1cc(CN2CCC(Nc3nccc(Oc4c(C)cc(C#N)cc4C)n3)CC2)nn1
3,52 nM,COC(=O)Cn1cc(CN2CCC(Nc3nccc(Oc4c(C)cc(/C=C/C#N)cc4C)n3)CC2)nn1

row,SMILES,IC50
1,Cc1cc(/C=C/C#N)cc(C)c1Oc1ccnc(NC2CCN(Cc3cn(Cc4ccc(B(O)O)cc4)nn3)CC2)n1,96 nM
2,Cc1cc(/C=C/C#N)cc(C)c1Oc1ccnc(NC2CCN(Cc3cn(CC(=O)NC4CC4)nn3)CC2)n1,40 nM

# Target: Human immunodeficiency virus type 1 reverse transcriptase (Human immunodeficiency virus 1) (UniProt Q72547)
# Assay: Inhibition of HIV-1 reverse transcriptase incubated for 2 hrs in presence of template and viral nucleotides by ELISA relative to control
# Design: concentration or dose not given beside the values
# Conditions: concentration not given here
row,inhibition,SMILES
1,90.9%,CCOC(=O)Cn1cc(CN2CCC(Nc3nccc(Oc4c(C)cc(/C=C/C#N)cc4C)n3)CC2)nn1
2,90.7%,COC(=O)CCCn1cc(CN2CCC(Nc3nccc(Oc4c(C)cc(C#N)cc4C)n3)CC2)nn1
3,91.7%,COC(=O)Cn1cc(CN2CCC(Nc3nccc(Oc4c(C)cc(/C=C/C#N)cc4C)n3)CC2)nn1

row,SMILES,inhibition
1,Cc1cc(/C=C/C#N)cc(C)c1Oc1ccnc(NC2CCN(Cc3cn(Cc4ccc(B(O)O)cc4)nn3)CC2)n1,92.2%
2,Cc1cc(/C=C/C#N)cc(C)c1Oc1ccnc(NC2CCN(Cc3cn(CC(=O)NC4CC4)nn3)CC2)n1,92.4%

# Tested on: Human immunodeficiency virus 1
# Assay: Antiviral activity against HIV1 IIIB infected in MT4 cells assessed as reduction in virus induced cytopathic effect incubated for 5 days by MTT method
# Assay type: functional, organism-based
# Conditions: Human immunodeficiency virus 1, IIIB, MT4, 120 h
row,SMILES,EC50
1,CCOC(=O)Cn1cc(CN2CCC(Nc3nccc(Oc4c(C)cc(/C=C/C#N)cc4C)n3)CC2)nn1,11 nM
2,COC(=O)CCCn1cc(CN2CCC(Nc3nccc(Oc4c(C)cc(C#N)cc4C)n3)CC2)nn1,10 nM
3,COC(=O)Cn1cc(CN2CCC(Nc3nccc(Oc4c(C)cc(/C=C/C#N)cc4C)n3)CC2)nn1,36 nM
4,Cc1cc(/C=C/C#N)cc(C)c1Oc1ccnc(NC2CCN(Cc3cn(Cc4ccc(B(O)O)cc4)nn3)CC2)n1,6 nM
5,Cc1cc(/C=C/C#N)cc(C)c1Oc1ccnc(NC2CCN(Cc3cn(CC(=O)NC4CC4)nn3)CC2)n1,2 nM

# Tested on: not listed separately
# Assay: Cytotoxicity against human MT4 cells assessed as reduction in cell viability incubated for 5 days by MTT method
# Assay type: toxicity, cell-based
# Conditions: time 5 day
row,SMILES,CC50 at 120 h
1,CCOC(=O)Cn1cc(CN2CCC(Nc3nccc(Oc4c(C)cc(/C=C/C#N)cc4C)n3)CC2)nn1,18800 nM
2,COC(=O)CCCn1cc(CN2CCC(Nc3nccc(Oc4c(C)cc(C#N)cc4C)n3)CC2)nn1,21300 nM
3,COC(=O)Cn1cc(CN2CCC(Nc3nccc(Oc4c(C)cc(/C=C/C#N)cc4C)n3)CC2)nn1,26200 nM
4,Cc1cc(/C=C/C#N)cc(C)c1Oc1ccnc(NC2CCN(Cc3cn(Cc4ccc(B(O)O)cc4)nn3)CC2)n1,4620 nM
5,Cc1cc(/C=C/C#N)cc(C)c1Oc1ccnc(NC2CCN(Cc3cn(CC(=O)NC4CC4)nn3)CC2)n1,21000 nM

# Tested on: not listed separately
# Assay: Selectivity index, ratio of CC50 for human MT4 cells to EC50 for antiviral activity against HIV1 IIIB infected in MT4 cells
# Assay type: toxicity, cell-based
# Conditions: read-out: Ratio CC50/EC50
row,SMILES,selectivity ratio
1,CCOC(=O)Cn1cc(CN2CCC(Nc3nccc(Oc4c(C)cc(/C=C/C#N)cc4C)n3)CC2)nn1,1740
2,COC(=O)CCCn1cc(CN2CCC(Nc3nccc(Oc4c(C)cc(C#N)cc4C)n3)CC2)nn1,2060
3,COC(=O)Cn1cc(CN2CCC(Nc3nccc(Oc4c(C)cc(/C=C/C#N)cc4C)n3)CC2)nn1,732
4,Cc1cc(/C=C/C#N)cc(C)c1Oc1ccnc(NC2CCN(Cc3cn(Cc4ccc(B(O)O)cc4)nn3)CC2)n1,825
5,Cc1cc(/C=C/C#N)cc(C)c1Oc1ccnc(NC2CCN(Cc3cn(CC(=O)NC4CC4)nn3)CC2)n1,14000

# Tested on: Human immunodeficiency virus 1
# Assay: Antiviral activity against HIV1 IIIB harboring L100I mutant infected in MT4 cells assessed as reduction in virus induced cytopathic effect incubated for 5 days by MTT method
# Assay type: functional, organism-based
# Conditions: Human immunodeficiency virus 1, IIIB, MT4, 120 h
row,SMILES,EC50
1,Cc1cc(/C=C/C#N)cc(C)c1Oc1ccnc(NC2CCN(Cc3cn(Cc4ccc(B(O)O)cc4)nn3)CC2)n1,9 nM
2,Cc1cc(/C=C/C#N)cc(C)c1Oc1ccnc(NC2CCN(Cc3cn(CC(=O)NC4CC4)nn3)CC2)n1,9 nM

# Tested on: Human immunodeficiency virus 1
# Assay: Antiviral activity against HIV1 IIIB harboring K103 N mutant infected in MT4 cells assessed as reduction in virus induced cytopathic effect incubated for 5 days by MTT method
# Assay type: functional, organism-based
# Conditions: Human immunodeficiency virus 1, IIIB, MT4, 120 h
row,SMILES,EC50
1,Cc1cc(/C=C/C#N)cc(C)c1Oc1ccnc(NC2CCN(Cc3cn(Cc4ccc(B(O)O)cc4)nn3)CC2)n1,4 nM

# Tested on: Human immunodeficiency virus 1
# Assay: Antiviral activity against HIV1 IIIB harboring Y181C mutant infected in MT4 cells assessed as reduction in virus induced cytopathic effect incubated for 5 days by MTT method
# Assay type: functional, organism-based
# Conditions: Human immunodeficiency virus 1, IIIB, MT4, 120 h
row,SMILES,EC50
1,Cc1cc(/C=C/C#N)cc(C)c1Oc1ccnc(NC2CCN(Cc3cn(Cc4ccc(B(O)O)cc4)nn3)CC2)n1,11 nM
2,Cc1cc(/C=C/C#N)cc(C)c1Oc1ccnc(NC2CCN(Cc3cn(CC(=O)NC4CC4)nn3)CC2)n1,7 nM

# Tested on: Human immunodeficiency virus 1
# Assay: Antiviral activity against HIV1 IIIB harboring Y188L mutant infected in MT4 cells assessed as reduction in virus induced cytopathic effect incubated for 5 days by MTT method
# Assay type: functional, organism-based
# Conditions: Human immunodeficiency virus 1, IIIB, MT4, 120 h
row,SMILES,EC50
1,Cc1cc(/C=C/C#N)cc(C)c1Oc1ccnc(NC2CCN(Cc3cn(Cc4ccc(B(O)O)cc4)nn3)CC2)n1,78 nM
2,Cc1cc(/C=C/C#N)cc(C)c1Oc1ccnc(NC2CCN(Cc3cn(CC(=O)NC4CC4)nn3)CC2)n1,91 nM

# Tested on: Human immunodeficiency virus 1
# Assay: Antiviral activity against HIV1 IIIB harboring E138K mutant infected in MT4 cells assessed as reduction in virus induced cytopathic effect incubated for 5 days by MTT method
# Assay type: functional, organism-based
# Conditions: Human immunodeficiency virus 1, IIIB, MT4, 120 h
row,SMILES,EC50
1,Cc1cc(/C=C/C#N)cc(C)c1Oc1ccnc(NC2CCN(Cc3cn(Cc4ccc(B(O)O)cc4)nn3)CC2)n1,19 nM
2,Cc1cc(/C=C/C#N)cc(C)c1Oc1ccnc(NC2CCN(Cc3cn(CC(=O)NC4CC4)nn3)CC2)n1,7 nM

# Tested on: Human immunodeficiency virus 1
# Assay: Antiviral activity against HIV1 IIIB harboring F227L/V106A double mutant infected in MT4 cells assessed as reduction in virus induced cytopathic effect incubated for 5 days by MTT method
# Assay type: functional, organism-based
# Conditions: Human immunodeficiency virus 1, IIIB, MT4, 120 h
row,SMILES,EC50
1,Cc1cc(/C=C/C#N)cc(C)c1Oc1ccnc(NC2CCN(Cc3cn(Cc4ccc(B(O)O)cc4)nn3)CC2)n1,99 nM
2,Cc1cc(/C=C/C#N)cc(C)c1Oc1ccnc(NC2CCN(Cc3cn(CC(=O)NC4CC4)nn3)CC2)n1,66 nM

# Tested on: Human immunodeficiency virus 1
# Assay: Antiviral activity against HIV1 IIIB harboring RES056 mutant infected in MT4 cells assessed as reduction in virus induced cytopathic effect incubated for 5 days by MTT method
# Assay type: functional, organism-based
# Conditions: Human immunodeficiency virus 1, IIIB, MT4, 120 h
row,SMILES,EC50
1,Cc1cc(/C=C/C#N)cc(C)c1Oc1ccnc(NC2CCN(Cc3cn(Cc4ccc(B(O)O)cc4)nn3)CC2)n1,133 nM
2,Cc1cc(/C=C/C#N)cc(C)c1Oc1ccnc(NC2CCN(Cc3cn(CC(=O)NC4CC4)nn3)CC2)n1,85 nM

# Tested on: not listed separately
# Assay: Aqueous solubility of compound at pH 7.4 incubated for 24 hrs under shaking condition by HPLC method
# Assay type: physicochemical
# Conditions: buffer
row,SMILES,solubility thermodynamic at 24 h
1,Cc1cc(/C=C/C#N)cc(C)c1Oc1ccnc(NC2CCN(Cc3cn(CC(=O)NC4CC4)nn3)CC2)n1,85 µg/mL

# Tested on: not listed separately
# Assay: Aqueous solubility of compound at pH 7 incubated for 24 hrs under shaking condition by HPLC method
# Assay type: physicochemical
# Conditions: buffer
row,SMILES,solubility thermodynamic at 24 h
1,Cc1cc(/C=C/C#N)cc(C)c1Oc1ccnc(NC2CCN(Cc3cn(CC(=O)NC4CC4)nn3)CC2)n1,198 µg/mL

# Tested on: not listed separately
# Assay: Aqueous solubility of compound at pH 2 incubated for 24 hrs under shaking condition by HPLC method
# Assay type: physicochemical
# Conditions: buffer
row,SMILES,solubility thermodynamic at 24 h
1,Cc1cc(/C=C/C#N)cc(C)c1Oc1ccnc(NC2CCN(Cc3cn(CC(=O)NC4CC4)nn3)CC2)n1,3190 µg/mL
